We go through 52 compounds from the Kinase Knowledgebase extract (Sharma et al. 2016).

One test has as its target EGFR (mouse) (UniProt P00533). To be noted: 3t3.
A further test concerns the target CDK2 (UniProt P24941). The experiment in a line: Enzyme Assay.

As usually defined, the IC50 is the concentration at which inhibition is half-maximal. Higher therefore signals weaker potency. On to `O=C1Nc2cc(Br)ccc2/C1=C/c1[nH]cc2c1CCOC2=O`, for which the IC50 with EGFR (mouse) is greater than 20 µM; against CDK2 it was 0.97 µM.

`CN(C)S(=O)(=O)c1ccc2c(c1)/C(=C/c1[nH]cc3c1CCOC3=O)C(=O)N2`: the figures for the IC50 with EGFR (mouse) and at CDK2 were greater than 20 µM and 0.03 µM, respectively.

With `O=C1Nc2cc(F)ccc2/C1=C/c1[nH]cc2c1CCOC2=O`, the IC50 in the test with EGFR (mouse) is greater than 20 µM; at CDK2 it was 0.36 µM.

Regarding `CNS(=O)(=O)c1ccc2c(c1)/C(=C/c1[nH]cc3c1CCNC3=O)C(=O)N2`, the half-inhibitory concentration (IC50) in the test with EGFR (mouse) was greater than 20 µM; against CDK2 it was 0.009 µM.

As to `O=C1Nc2cc(-c3ccccc3)ccc2/C1=C/c1[nH]cc2c1CCNC2=O`, the results for the IC50 with EGFR (mouse) and against CDK2 were greater than 20 µM and 6.01 µM, respectively.

Turning to `O=C1Nc2cc(Cl)ccc2/C1=C/c1[nH]cc2c1CCOC2=O`, the IC50 was greater than 20 µM with EGFR (mouse) and 0.41 µM at CDK2.

Consider `O=C1Nc2cc(Br)ccc2/C1=C/c1[nH]cc2c1CCNC2=O`, for which the values for the IC50 in the test with EGFR (mouse) and against CDK2 were greater than 20 µM and greater than 10 µM, respectively.

In the case of `O=C1Nc2ccc(S(=O)(=O)N3CCCc4ccccc43)cc2/C1=C/c1[nH]cc2c1CCOC2=O`, the IC50 with EGFR (mouse) was greater than 20 µM; against CDK2 it was 0.55 µM.

On to `CNS(=O)(=O)c1ccc2c(c1)/C(=C/c1[nH]cc3c1CCOC3=O)C(=O)N2`, for which the IC50 in the test with EGFR (mouse) was greater than 20 µM; on CDK2, 0.005 µM.

`O=C1Nc2ccc(C(=O)N3CCCC3)cc2/C1=C/c1[nH]cc2c1CCNC2=O`: the IC50 is greater than 20 µM with EGFR (mouse) and 0.07 µM against CDK2.

Regarding `O=C1Nc2cc(Cl)ccc2/C1=C/c1[nH]cc2c1CCNC2=O`, the IC50 is greater than 20 µM with EGFR (mouse) and 7.23 µM on CDK2.

Regarding `O=C1Nc2ccc(S(=O)(=O)N3CCc4cc(Br)ccc43)cc2/C1=C/c1[nH]cc2c1CCOC2=O`, the IC50 with EGFR (mouse) was greater than 20 µM; against CDK2, 2.86 µM.

As for `COc1ccc2c(c1)NC(=O)/C2=C\c1[nH]cc2c1CCOC2=O`, the IC50 on CDK2 stood at 1.55 µM.

Consider `Cc1cccc2c1/C(=C/c1[nH]cc3c1CCOC3=O)C(=O)N2`, for which the IC50 in the test with EGFR (mouse) is greater than 20 µM; on CDK2, 0.27 µM.

For the compound `O=C1Nc2ccc(S(=O)(=O)Nc3ccccc3)cc2/C1=C/c1[nH]cc2c1CCOC2=O`, the IC50 is greater than 20 µM with EGFR (mouse) and 0.04 µM at CDK2.

With `NS(=O)(=O)c1ccc2c(c1)/C(=C/c1[nH]cc3c1CCOC3=O)C(=O)N2`, the results for the IC50 with EGFR (mouse) and at CDK2 were greater than 20 µM and 0.01 µM, respectively.

With `O=C1Nc2ccc(C(=O)N3CCOCC3)cc2/C1=C/c1[nH]cc2c1CCNC2=O`, the figures for the IC50 with EGFR (mouse) and against CDK2 were greater than 20 µM and 0.56 µM, respectively.

Turning to `COc1cccc(-c2ccc3c(c2)NC(=O)/C3=C\c2[nH]cc3c2CCOC3=O)c1`, the IC50 in the test with EGFR (mouse) is greater than 20 µM; at CDK2, greater than 10 µM.

With `COc1ccc(-c2ccc3c(c2)NC(=O)/C3=C\c2[nH]cc3c2CCOC3=O)cc1`, the figures for the IC50 with EGFR (mouse) and at CDK2 were greater than 20 µM and 1 µM, respectively.

Take `O=C1Nc2ccc(-c3ccccc3)cc2/C1=C/c1[nH]cc2c1CCNC2=O`: the IC50 in the test with EGFR (mouse) is greater than 20 µM; against CDK2, 3.2 µM.

Take `O=C1Nc2cc(-c3ccc(F)cc3)ccc2/C1=C/c1[nH]cc2c1CCOC2=O`: the IC50 was greater than 20 µM in the test with EGFR (mouse) and 1.06 µM at CDK2.

`O=C1Nc2ccc(-c3cccc(C(=O)O)c3)cc2/C1=C/c1[nH]cc2c1CCOC2=O`: the IC50 with EGFR (mouse) was greater than 20 µM; on CDK2, 6.71 µM.

For the compound `O=C1Nc2ccc(F)cc2/C1=C/c1[nH]cc2c1CCNC2=O`, the IC50 with EGFR (mouse) is greater than 20 µM; on CDK2, 0.3 µM.

As for `O=C1Nc2ccc(S(=O)(=O)N3CCc4ccccc43)cc2/C1=C/c1[nH]cc2c1CCOC2=O`, the IC50 was greater than 20 µM with EGFR (mouse) and 0.35 µM against CDK2.

As for `CN(c1cccc(Cl)c1)S(=O)(=O)c1ccc2c(c1)/C(=C/c1[nH]cc3c1CCOC3=O)C(=O)N2`, the IC50 in the test with EGFR (mouse) was greater than 20 µM; against CDK2, 9.95 µM.

Take `CN(C)S(=O)(=O)c1ccc2c(c1)/C(=C/c1[nH]cc3c1CCNC3=O)C(=O)N2`: the IC50 in the test with EGFR (mouse) was greater than 20 µM; against CDK2 it was 0.1 µM.

With `CC(=O)Nc1ccc2c(c1)NC(=O)/C2=C\c1[nH]cc2c1CCOC2=O`, the IC50 was greater than 20 µM with EGFR (mouse) and 7.86 µM at CDK2.

As for `COc1ccc2c(c1)/C(=C/c1[nH]cc3c1CCNC3=O)C(=O)N2`, the IC50 with EGFR (mouse) was greater than 20 µM; on CDK2 it was 0.29 µM.

As for `O=C1Nc2cc(-c3ccccc3)ccc2/C1=C/c1[nH]cc2c1CCOC2=O`, the half-inhibitory concentration (IC50) with EGFR (mouse) is greater than 20 µM; at CDK2, greater than 10 µM.

`COc1ccc2c(c1)/C(=C/c1[nH]cc3c1CCOC3=O)C(=O)N2`: the IC50 with EGFR (mouse) was greater than 20 µM; against CDK2 it was 0.04 µM.

Consider `Cc1c(Br)ccc2c1/C(=C/c1[nH]cc3c1CCOC3=O)C(=O)N2`, for which the half-inhibitory concentration (IC50) with EGFR (mouse) is greater than 20 µM; against CDK2 it was 0.16 µM.

For the compound `CN(C)C(=O)c1ccc2c(c1)/C(=C/c1[nH]cc3c1CCNC3=O)C(=O)N2`, the IC50 in the test with EGFR (mouse) is greater than 20 µM; at CDK2, 0.09 µM.

For the compound `CC(C)NS(=O)(=O)c1ccc2c(c1)/C(=C/c1[nH]cc3c1CCOC3=O)C(=O)N2`, the IC50 with EGFR (mouse) is greater than 20 µM; against CDK2, 0.06 µM.

Turning to `O=C1Nc2ccc(S(=O)(=O)N3CCc4ccccc4C3)cc2/C1=C/c1[nH]cc2c1CCOC2=O`, the values for the IC50 in the test with EGFR (mouse) and at CDK2 were greater than 20 µM and 0.73 µM, respectively.

As for `O=C1Nc2ccc3c(c2/C1=C/c1[nH]cc2c1CCOC2=O)CCOS3(=O)=O`, the IC50 in the test with EGFR (mouse) is greater than 20 µM; against CDK2, 0.13 µM.

As to `O=C1Nc2ccc(Cl)cc2/C1=C/c1[nH]cc2c1CCOC2=O`, the IC50 with EGFR (mouse) is greater than 20 µM; on CDK2, 0.09 µM.

In the case of `COc1ccccc1-c1ccc2c(c1)NC(=O)/C2=C\c1[nH]cc2c1CCOC2=O`, the IC50 is greater than 20 µM in the test with EGFR (mouse) and greater than 10 µM against CDK2.

Take `O=C1Nc2ccc(S(=O)(=O)Nc3cccc(Cl)c3)cc2/C1=C/c1[nH]cc2c1CCOC2=O`: the IC50 was greater than 20 µM with EGFR (mouse) and 0.49 µM against CDK2.

In the case of `O=C1Nc2c(Cl)cccc2/C1=C/c1[nH]cc2c1CCOC2=O`, the IC50 with EGFR (mouse) is greater than 20 µM; against CDK2 it was 2.58 µM.

Turning to `O=C1Nc2ccc(-c3ccccc3)cc2/C1=C/c1[nH]cc2c1CCOC2=O`, the IC50 with EGFR (mouse) is greater than 20 µM; at CDK2, 3.84 µM.

As for `O=C1Nc2cc(-c3cccnc3)ccc2/C1=C/c1[nH]cc2c1CCOC2=O`, the results for the IC50 with EGFR (mouse) and at CDK2 were greater than 20 µM and 5.69 µM, respectively.

`NS(=O)(=O)c1ccc2c(c1)/C(=C/c1[nH]cc3c1CCNC3=O)C(=O)N2`: the IC50 with EGFR (mouse) was greater than 20 µM; on CDK2, less than 0.005 µM.

As for `CNS(=O)(=O)c1ccc2c(c1C)/C(=C/c1[nH]cc3c1CCOC3=O)C(=O)N2`, the IC50 with EGFR (mouse) was greater than 20 µM; on CDK2 it was 0.0055 µM.

As to `O=C1Nc2ccc(Br)cc2/C1=C/c1[nH]cc2c1CCNC2=O`, the IC50 was greater than 20 µM with EGFR (mouse) and 0.53 µM at CDK2.

As to `Cc1c(Cl)ccc2c1/C(=C/c1[nH]cc3c1CCOC3=O)C(=O)N2`, the IC50 is greater than 20 µM with EGFR (mouse) and 0.31 µM against CDK2.

As to `O=C1Nc2ccc(F)cc2/C1=C/c1[nH]cc2c1CCOC2=O`, the IC50 with EGFR (mouse) is greater than 20 µM; against CDK2, 0.08 µM.

Take `O=C1Nc2ccc(Br)cc2/C1=C/c1[nH]cc2c1CCOC2=O`: the IC50 in the test with EGFR (mouse) is greater than 20 µM; on CDK2 it was 0.24 µM.

In the case of `O=C1Nc2cccc(CCO)c2/C1=C/c1[nH]cc2c1CCOC2=O`, the IC50 with EGFR (mouse) was greater than 20 µM; against CDK2, 0.03 µM.

Regarding `O=C1Nc2cc(-c3cccc(C(=O)O)c3)ccc2/C1=C/c1[nH]cc2c1CCOC2=O`, the results for the IC50 in the test with EGFR (mouse) and on CDK2 were 18.7 µM and 5.36 µM, respectively.

`O=C1Nc2cc(C(=O)O)ccc2/C1=C/c1[nH]cc2c1CCOC2=O`: the IC50 was greater than 20 µM with EGFR (mouse) and 1.08 µM against CDK2.

For `O=C1Nc2cccc(CCO)c2/C1=C/c1[nH]cc2c1CCNC2=O`, the IC50 is greater than 20 µM with EGFR (mouse) and 0.45 µM against CDK2.

`O=C1Nc2ccc(C(=O)O)cc2/C1=C/c1[nH]cc2c1CCOC2=O`: the IC50 in the test with EGFR (mouse) was greater than 20 µM; on CDK2 it was 0.004 µM.
